{"source": "patent US11298569B2", "about": "(priority 2016, dated 2022)", "key": {"morphine-dependent rats": {"test_system": "morphine-dependent rats", "assay": "Naloxone-precipitated morphine withdrawal behaviours in rats", "type": "in vivo, rat", "details": "for morphine withdrawal: morphine-dependent rats", "experimental": "(§1) Control rats and mice received saline and were challenged with naloxone on day 5. […] Jumping, teeth chattering, wet-dog shakes, headshakes, and grooming behaviors were evaluated at 5-min intervals for a total test period of 30 minutes and a standardized score of 0 to 3 was assigned to each behavior. Allodynia, piloerection, salivation, ejaculation, and tremorsitwitchina were also evaluated, with one point given to the presence of the behavior during each 5-min interval. All signs were counted and compiled to yield a cumulative withdrawal score. Rats and mice were weighed before and after naloxone challenge to calculate weight loss. In all behavioral studies, experimenters were blind to the drug treatments and genetic profile of rats and mice.\n(§2) All control animals received intrathecal saline.\nBoth mefloquine and probenecid were reconstituted in β-cyclodextrin (Sigma), and control animals received systemic β-cyclodextrin."}, "Panx1 [1]": {"molecular_target": "T1, Panx1 (Mus musculus, UniProt Q9JIP4)", "T1 construct": "endogenous in cells; host or cells: BV-2 microglia", "T1 sequence (Q9JIP4 whole entry)": "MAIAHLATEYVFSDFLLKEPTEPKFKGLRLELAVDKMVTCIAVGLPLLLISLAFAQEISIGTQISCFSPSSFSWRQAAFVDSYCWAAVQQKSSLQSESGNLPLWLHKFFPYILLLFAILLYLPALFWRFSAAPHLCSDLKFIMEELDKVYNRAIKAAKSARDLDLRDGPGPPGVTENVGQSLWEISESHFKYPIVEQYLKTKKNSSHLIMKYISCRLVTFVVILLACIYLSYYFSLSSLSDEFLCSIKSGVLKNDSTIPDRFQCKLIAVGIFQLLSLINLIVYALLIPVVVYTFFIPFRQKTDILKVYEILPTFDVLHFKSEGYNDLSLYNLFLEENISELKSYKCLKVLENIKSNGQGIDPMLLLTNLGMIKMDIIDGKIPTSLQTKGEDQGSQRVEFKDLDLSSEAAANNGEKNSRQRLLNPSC", "type": "cell-based", "details": "for naloxone potentiation of Panx1 activation (YO-PRO-3 dye uptake): morphine-treated BV-2 microglial cultures, 30 minutes post-BzATP; for BzATP-evoked YO-PRO-1 uptake: morphine-treated microglia, BzATP 150 μM, drug 10 μM", "experimental": "(§3) BV2 microglia were maintained in DMEM media (Gibco) containing 10% FBS and 1% Pen-Strep at 37° C. with 5% CO2.\nFollowing a 5-min baseline recording, cells were stimulated with BzATP (150 μM, Sigma) and dye-uptake was recorded for 30 minutes. Cell viability was assessed immediately after 30 minute recording by application of ionomycin (1 μM, Sigma). YO-PRO-1 dye fluorescent emission (491/509) or YO-PRO-3 dye fluorescent emission (612/631) was detected at 37° C. using a FilterMax F5 plate reader (Molecular Devices). Drugs used include ^10panx, ^scrpanx, and naloxone, all of which were used at 10 μM. Drugs were bath applied in YO-PRO-1 dye and incubated at 37° C. for 10 minutes prior to baseline recording. Fluorescent emission at 30 minutes post BzATP application was calculated as percent change from baseline. Representative images of BV-2 YO-PRO-1 dye uptake were taken at room temperature using an inverted microscope (Nikon Eclipse Ti C1S1 Spectral Confocal) with images take at 5 minute intervals for 30 minutes using EasyRatioPro software (PTI). To assess Panx1 function in Cx3cr1::Panx1^flx/flx adult microglia, neuron-glia mixture culture was isolated from adult mice treated with tamoxifen or vehicle for 5 days, then plated in DMEM containing 10% FBS and 1% Pen-Strep and incubated overnight at 37° C. with 5% CO2. Cells were washed and incubated with DAPI (1:10,000) for 10 minutes, and then incubated in YO-PRO-3 dye. Microglia were identified from mixed adult neuronal-glia culture by endogenous expression of eYFP. Fluorescence of individual eYFP positive microglia was recorded for a 5 minute baseline period and then for 30 minutes post BzATP stimulation (300 μM). Fluorescent emission at 30 minutes was calculated and as percent change from baseline."}, "Panx1 [2]": {"molecular_target": "T1, Panx1", "type": "cell-based", "details": "for ATP release: morphine-treated cultured microglia stimulated with naloxone", "experimental": "as §3\nATP level were detected using bioluminescence by combining samples with recombinant firefly luciferase and its substrate D-luciferin (ATP Determination Kit, Life Technologies). The ATPase inhibitor (ARL67156, 1 μM, Sigma) was added to the ECS or ACSF to decrease breakdown of ATP, and samples were incubated in medium for 30 minutes prior to naloxone stimulation to reduce mechanically-induced ATP release. Samples were stimulated with naloxone (10 μM) for 30 minutes, at which point the supernatant was collected. Samples were read immediately after collection using a FilterMax F5 plate reader at 28° C. For experiments for BV-2 microglial cultures, cells were incubated in ^10panx (10 μM), ^scrpanx (10 μM), probenecid (1 mM), mefloquine (40 μM) or ECS for 10 minutes prior to naloxone stimulation. Final ATP measurement was expressed relative to control samples (saline treated and ECS stimulated) from the same plate. For ATP release in spinal cord slices, tamoxifen or vehicle treated Cx3cr1::Panx1^flx/flx mice were perfused with ice-cold oxygenated sucrose-substituted ACSF, and the spinal cord isolated by hydraulic extrusion. The lumbar segment of the spinal cord was sliced into 300 μm sections, and incubated in oxygenated 37° C. ACSF for 1 hour. Spinal cord slices were then transferred to room temperature oxygenated ACSF and stimulated with naloxone. For quantification, ATP release was normalized to total protein of each sample."}, "[3]": {"test_system": "Cx3cr1-cre::Panx1^flx/flx mice", "assay": "Naloxone-precipitated morphine withdrawal behaviours in mice", "type": "in vivo, mouse", "details": "for morphine withdrawal: morphine-dependent Panx1-expressing mice, 15 minutes prior to naloxone", "experimental": "as §1, §2"}, "[4]": {"test_system": "CD11b-positive cells in the lumbar spinal cords", "details": "mouse", "method": "Mice with microglial specific deletion of Panx1 were generated using a Cre-loxP system. […] Progeny genotype was screened using PCR, and homozygous Panx1^flx/flx and Cx3cr1-cre mice were bred and backcrossed for 8 generations to yield the conditional Cx3cr1::Panx1^flx/flx knock-out mice. To induce Cre recombination, mice were injected intraperitoneally with 1 mg per day tamoxifen (Sigma) for 5 days. Wild-type mice were littermate mice that received vehicle injections (sunflower oil with 10% ethanol) for 5 days, while tamoxifen-related effects were controlled for using Panx1^flx/flx littermate mice that received 5 days of tamoxifen injections."}, "Panx1 [5]": {"test_system": "Panx1", "assay": "Western blot of total Panx1 protein in rat primary microglia cultures", "type": "cell-based", "details": "morphine for 5-days", "experimental": "(§4) Rat spinal cord tissue was rapidly dissected and homogenized in RIPA buffer containing 20 mM TrisHCl (pH 7.5), 150 mM NaCl, and 0.5% Tween-20. Cultured microglia were harvested in 150 μL lysis buffer containing 50 mM TrisHCl, 150 mM NaCl, 10 mM EDTA, 0.1% Triton-X, and 5% Glycerol. Both RIPA and lysis buffers contained protease inhibitors (Sigma) and phosphatase inhibitors (GBiosciences). Total protein was measured using a BioRad RC DC Protein Assay Kit (BioRad) or Pierce BCA Protein Assay Kit (Thermo Scientific). Samples were heated at 95° C. for 5-min in loading buffer (350 mM Tris, 30% glycerol, 1.6% SDS, 1.2% bromophenol blue, 6% β-mercaptoethanol) then electrophoresed on a precast SDS gel (4-12% Tris-HCl, BioRad) and transferred onto a nitrocellulose membrane. […] Membranes were washed and incubated for 2 h at 20-25° C. in fluorophore-conjugated secondary antibodies (anti-rabbit and anti-mouse conjugated IR Dyes 1:5000, Mandel Scientific; or Fluorescent TrueBlot anti-rabbit IgG Dylight 1:1000, Rockland) then quantified by direct detection of secondary antibody fluorescence at 680 and 800 nm (LICOR Odyssey CLx). Band intensity was quantified using Image J, normalized to β-actin and expressed relative to control samples. […]"}, "Panx1 [6]": {"test_system": "Panx1", "assay": "Western blot of total Panx1 protein in BV-2 microglial cell line", "type": "cell-based", "details": "morphine for 5-days", "experimental": "as §4"}}, "note": "Read-outs that look alike come from different tables or passages of the source.", "data": [{"compound": "OC(c1cc(C(F)(F)F)nc2c(C(F)(F)F)cccc12)C1CCCCN1", "note": "(stereo not shown) [mefloquine]", "values": [{"measurement": "morphine withdrawal", "setting": "morphine-dependent rats; systemic 45 mg/kg i.p. 1-hour prior to naloxone challenge", "result": "significantly ameliorated"}, {"measurement": "naloxone potentiation of Panx1 activation (YO-PRO-3 dye uptake)", "setting": "Panx1 [1]", "result": "blocked"}, {"measurement": "ATP release", "setting": "Panx1 [2]; mefloquine 40 μM", "result": "suppressed"}]}, {"compound": "CC/C(=C(\\c1ccccc1)c1ccc(OCCN(C)C)cc1)c1ccccc1", "note": "[tamoxifen]", "values": [{"measurement": "morphine withdrawal responses", "setting": "[3]; tamoxifen given to Panx1^loxp/loxp mice without inducible Cre-recombinase", "result": "does not affect morphine withdrawal"}, {"measurement": "recombination in Cre^ER reporter eYFP / CD11b-positive cells", "setting": "[4]", "result": "95±3.1", "unit": "%"}]}, {"compound": "WRQAAFVDSY (10panx) [^10panx]", "values": [{"measurement": "withdrawal behaviours", "setting": "morphine-dependent rats; rats after 5-days of morphine, intrathecal 10 μg, 60-minutes prior to naloxone challenge", "result": "significantly attenuated"}, {"measurement": "naloxone-precipitated morphine withdrawal", "setting": "[3]; Panx1-expressing mice, intrathecal 10 μg before naloxone challenge", "result": "significantly attenuated"}, {"measurement": "naloxone-precipitated morphine withdrawal", "setting": "[3]; mice lacking microglial Panx1, intrathecal 10 μg", "result": "did not further reduce withdrawal"}, {"measurement": "BzATP-evoked YO-PRO-1 uptake", "setting": "Panx1 [1]", "result": "blocked"}, {"measurement": "naloxone-evoked release of ATP", "setting": "Panx1 [2]; cultured microglia, ^10panx 10 μM for 10 minutes prior to naloxone", "result": "blocked"}]}, {"compound": "C=CCN1CC[C@]23c4c5ccc(O)c4O[C@H]2C(=O)CC[C@@]3(O)[C@H]1C5", "note": "[naloxone]", "values": [{"measurement": "BzATP-evoked YO-PRO-1 uptake", "setting": "Panx1 [1]", "result": "further potentiated"}, {"measurement": "ATP in microglial supernatant", "setting": "Panx1 [2]; naloxone applied to microglia in culture (10 μM, 30 minutes)", "result": "evoked the release of ATP"}]}, {"compound": "CN1CC[C@]23c4c5ccc(O)c4O[C@H]2[C@@H](O)C=C[C@H]3[C@H]1C5", "note": "[morphine]", "values": [{"measurement": "total Panx1 protein levels", "setting": "Panx1 [5]", "result": "marked increase"}, {"measurement": "total Panx1 protein levels", "setting": "Panx1 [6]", "result": "marked increase"}]}, {"compound": "FSVYWAQADR (scrPanx) [^scrpanx]", "values": [{"measurement": "BzATP-evoked YO-PRO-1 uptake", "setting": "Panx1 [1]", "result": "unaffected"}]}, {"compound": "CCCN(CCC)S(=O)(=O)c1ccc(C(=O)O)cc1", "note": "[probenecid]", "values": [{"measurement": "morphine withdrawal", "setting": "morphine-dependent rats; systemic 50 mg/kg i.p. 1-hour prior to naloxone challenge", "result": "significantly ameliorated"}, {"measurement": "naloxone potentiation of Panx1 activation (YO-PRO-3 dye uptake)", "setting": "Panx1 [1]", "result": "blocked"}, {"measurement": "ATP release", "setting": "Panx1 [2]; probenecid 1 mM", "result": "suppressed"}]}, {"compound": "CCN(CC)c1ncnc2c1ncn2[C@@H]1O[C@H](COP(=O)(O)OP(=O)(O)C(Br)(Br)P(=O)(O)O)[C@@H](O)[C@H]1O", "note": "[ARL67156]", "values": [{"measurement": "morphine withdrawal", "setting": "[3]; intrathecal 10 nmoles", "result": "exacerbated"}]}, {"compound": "apyrase", "values": [{"measurement": "morphine withdrawal", "setting": "[3]; intrathecal 10 units", "result": "striking reduction in withdrawal"}]}, {"compound": "Nc1ncnc2c1ncn2[C@@H]1O[C@H](COP(=O)(O)OP(=O)(O)OP(O)(O)=S)[C@@H](O)[C@H]1O", "note": "[ATPγS]", "values": [{"measurement": "withdrawal behaviors", "setting": "[3]; morphine-treated Panx1-deficient mice, intrathecal 100 μM together with naloxone challenge", "result": "restored a spectrum of withdrawal behaviors"}, {"measurement": "withdrawal behaviors", "setting": "[3]; saline-treated Panx1-deficient mice, intrathecal 100 μM", "result": "not observed"}]}]}
